For test [1], the target named is 5-hydroxytryptamine receptor 7 (Homo sapiens, UniProt P34969). Kind of test: In vitro binding affinity to human 5-hydroxytryptamine 7 receptor.
For test [2], the target named is 5-hydroxytryptamine receptor 2A (Homo sapiens, UniProt P28223). As to the kind of experiment: Binding affinity to cloned human 5-hydroxytryptamine 2A receptor.
In a further test the target is T1, D(4) dopamine receptor (Rattus norvegicus, UniProt P30729).
T1 sequence (P30729 whole entry): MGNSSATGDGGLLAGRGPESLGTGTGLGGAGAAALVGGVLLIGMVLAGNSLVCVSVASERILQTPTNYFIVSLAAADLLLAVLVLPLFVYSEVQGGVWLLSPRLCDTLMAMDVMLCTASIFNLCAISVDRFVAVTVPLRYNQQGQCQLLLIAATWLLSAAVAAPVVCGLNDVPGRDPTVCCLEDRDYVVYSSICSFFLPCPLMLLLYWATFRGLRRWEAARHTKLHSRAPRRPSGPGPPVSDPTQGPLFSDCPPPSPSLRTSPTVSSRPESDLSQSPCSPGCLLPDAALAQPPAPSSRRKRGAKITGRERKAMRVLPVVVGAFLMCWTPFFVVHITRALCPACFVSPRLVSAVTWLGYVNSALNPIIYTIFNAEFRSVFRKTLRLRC
As to the kind of experiment: In vitro binding affinity to rat Dopamine receptor D4 measured by displacement of the radioligand [3H]spiperone.

Test [3] deals with 5-hydroxytryptamine receptor 6 (Homo sapiens, UniProt P50406). As to the kind of experiment: In vitro binding affinity to human 5-hydroxytryptamine 6 receptor.
Test [4] can be described thus: Binding affinity to cloned Nicotinic acetylcholine receptors. Also noted: species or system Rattus norvegicus.

Where only a bound is given, the exact number is not on record here.

The results in this text go back to ChEMBL document CHEMBL1134077, “Synthesis of potent and selective dopamine D(4) antagonists as candidate radioligands” (Bioorg Med Chem Lett, 2001).

5-hydroxytryptamine receptor 2A, sequence (P28223 whole entry): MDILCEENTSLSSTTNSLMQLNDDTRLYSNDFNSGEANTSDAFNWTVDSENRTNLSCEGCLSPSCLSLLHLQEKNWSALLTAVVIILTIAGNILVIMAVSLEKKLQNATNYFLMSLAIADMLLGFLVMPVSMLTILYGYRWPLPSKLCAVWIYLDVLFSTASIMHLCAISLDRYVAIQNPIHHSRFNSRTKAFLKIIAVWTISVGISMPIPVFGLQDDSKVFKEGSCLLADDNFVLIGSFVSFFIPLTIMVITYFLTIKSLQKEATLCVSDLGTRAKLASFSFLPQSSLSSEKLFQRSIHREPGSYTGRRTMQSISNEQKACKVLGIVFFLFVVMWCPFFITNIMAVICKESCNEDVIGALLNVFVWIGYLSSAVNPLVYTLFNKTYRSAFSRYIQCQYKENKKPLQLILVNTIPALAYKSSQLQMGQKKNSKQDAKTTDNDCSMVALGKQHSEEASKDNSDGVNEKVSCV
5-hydroxytryptamine receptor 6, sequence (P50406 whole entry): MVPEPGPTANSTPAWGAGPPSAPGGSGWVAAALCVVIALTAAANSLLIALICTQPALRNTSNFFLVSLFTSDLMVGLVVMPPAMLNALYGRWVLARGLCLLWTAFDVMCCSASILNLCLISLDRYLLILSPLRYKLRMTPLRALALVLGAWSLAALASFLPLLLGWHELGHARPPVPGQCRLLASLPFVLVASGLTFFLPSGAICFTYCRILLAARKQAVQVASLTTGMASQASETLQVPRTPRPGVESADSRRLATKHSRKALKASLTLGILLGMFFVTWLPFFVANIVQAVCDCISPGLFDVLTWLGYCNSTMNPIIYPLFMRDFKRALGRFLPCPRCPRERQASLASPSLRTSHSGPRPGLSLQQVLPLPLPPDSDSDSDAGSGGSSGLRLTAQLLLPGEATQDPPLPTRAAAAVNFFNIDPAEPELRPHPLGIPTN
5-hydroxytryptamine receptor 7, sequence (P34969 whole entry): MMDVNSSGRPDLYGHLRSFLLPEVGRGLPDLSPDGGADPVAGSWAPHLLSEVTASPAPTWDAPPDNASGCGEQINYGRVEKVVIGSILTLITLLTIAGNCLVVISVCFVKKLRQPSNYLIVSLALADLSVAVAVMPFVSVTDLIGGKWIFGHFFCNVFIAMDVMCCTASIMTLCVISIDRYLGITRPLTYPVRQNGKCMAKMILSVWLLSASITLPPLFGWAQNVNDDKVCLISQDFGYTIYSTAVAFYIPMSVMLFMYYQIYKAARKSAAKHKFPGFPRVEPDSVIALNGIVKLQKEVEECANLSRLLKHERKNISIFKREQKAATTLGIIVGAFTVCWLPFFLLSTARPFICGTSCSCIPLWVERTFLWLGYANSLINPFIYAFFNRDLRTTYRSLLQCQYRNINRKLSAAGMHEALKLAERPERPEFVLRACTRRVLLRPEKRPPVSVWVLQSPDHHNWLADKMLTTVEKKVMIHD

In the case of `FC(F)(F)c1ccc(N2CCN(Cc3c[nH]c4ncccc34)CC2)cc1`, the Ki in test [1] is 0.318 µM; in test [2], 2.79 µM; on D(4) dopamine receptor, 0.0341 µM; in test [3], 7.11 µM.
The compound `Clc1ccc(N2CCN(Cc3c[nH]c4ncccc34)CC2)cc1` [L-745870] yielded an inhibition constant (Ki) in test [4] of more than 10 µM.
